This note sets out measurements from patent EP4205768A1, “MAGNETIC SOLID LIPID NANOPARTICLES, METHODS AND USES THEREOF” (priority 2021, dated 2023).

pIC50: −log10 of the molar value. “Also recorded” adds a separate entry of the source.

Data set [1] relates to triple negative breast cancer cells (Hs-578T). In words: Resazurine cell viability assay, 2D culture, with or without magnetic hyperthermia. It is filed as cell-based. Particulars: Homo sapiens. The protocol: In an embodiment, 2D- cell culture was prepared. Hs-578T and MBA-MB-231 TNBC cell lines (ATCC HTB-126 and ATCC Htb-26, respectively) were grown in Dulbecco's Modified Eagle's Medium (DMEM) supplemented with 10% foetal bovine serum and 1% penicillin/streptomycin. THP-1 peripheral blood monocytes (ATCC TIB-202) were grown in Gibco Roswell Park Memorial Institute (RPMI) medium supplemented with 10% foetal bovine serum and 1% penicillin/streptomycin. All cell lines were incubated at 37 °C in a 5% CO2 atmosphere.
In an embodiment, cell viability was assessed. The Resazurine assay was used to calculate the cell viability. The assay is based on the reduction by living cells of the oxidized blue dye to a pink fluorescent resorufin product. […] The fluorescence of each condition was then read with an Biotek Synergy H1 plate reader, and compared to the controls using the formula {Viability = (Treated cells−blank)/(Untreated cells−blank) × 100 [formula] }. […] For each, the inhibitory concentration 50 (IC50) of each formulation was calculated using the DRC R-package. […] The activity gain (AG) for the different formulations was calculated as {AGF=100×(IC50^(free DOX) −IC50^mSLNP)/(IC50^(free DOX))} [formula] , whilst the AG of the magnetic hyperthermia event was calculated as {AGMH=100×(IC50^noHT −IC50^HT)/(IC50^noHT)} [formula] . […]
On the technique in general: Resazurin is reduced to fluorescent resorufin, in cell work by metabolically active cells.

The test system of data set [2] is Hs-578T polyspheroids. In words: 3D polyspheroid growth assay with dual treatment (formulation + AMF). Type of data set: cell-based. The settings on record: 2 µM relative to DOX + 1h AMF on days 1, 3 and 5; monitored 19 days. The protocol: In an embodiment, 3D spheroids were prepared. In a 96-well plate was a hot and sterile solution of 1% agarose added (100 µL) and left to cool for 30 min at 4 °C. Then, the plate was tempered and 20000 cancer cells added to each well in 120 µ L of medium. The plate was centrifugated at 800 G during 30 min to promote the formation of the spheroid. The Spheroids were incubated for one week with a medium change every 3 days, until a small dense Spheroid was formed. These spheroids were used in confocal microscopy, or to form poly-spheroids. […]
In an embodiment, growth assay was performed. […] The polyspheroids were monitored every 2 days before treatments or medium change, using an inverted phase-contrast microscope (Nikon Eclipse TS100, Nikon Corporation, Tokyo, Japan) connected to a digital camera (Nikon, DS-Fi1). […] The images were analyzed with image J and R statistical language, using R-packages imager and EBImage, to determine the area of each polyspheroids treated with each condition for every day analyzed. The growth of the polyspheroids were normalized in regards to their own initial area at the start of the experiment, and calculated as { Growth = 100 × (Area−Area^day1)/(Area^day1) [formula] }. The daily growth was calculated as {Growth^daily=(∑Growth)/(19 days)} [formula] . […]

Data set [3] relates to Hs-578T cells. In words: Wound-healing (cell migration) assay. Type of data set: cell-based. The settings on record: at the IC50 DOX concentration, up to 48h. The protocol: The effect of the functionalized mSLNs AF-2 (EBR85, T-sensitive, +DOX) and AF-3 (EBR89, T-insensitive, -DOX) and reference compound (DOX) on the cell migration capability of Hs-578T cells was assessed through the wound-healing assay. mSLNs (with and without DOX) at the IC50 DOX concentration and equivalent mSLNs were used in the experiment. EBR89 (without DOX) was selected to study the effect of the nanoparticle nature on this tumorigenic feature and evaluate its toxicity. Cell migration and invasion are two hallmarks of cancer correlated to cancer progression and metastasis which correspond to a worse cancer prognosis.
Results are presented as mean ± SD of at least three independent experiments.

For data set [4], the system named is Hs578t tumor. Nature of the data set: In ovo (CAM) tumor growth model. Type of data set: in vivo, chicken. The settings on record: 2xIC50 (DOX concentration), treated at day 13, read at day 17. The protocol:
(§1) (A) In ovo pictures at day 13 of embryo development and in ovo and ex ovo pictures at day 17; representative images were taken at 20x in a Zeiss stereomicroscope. (B) Graphical representation of tumor growth. Data was analyzed by one-way ANOVA and the results are representative for the mean of at least 15 eggs per group;^∗∗∗p<0.0001 ^∗p<0.05. Hs578t cells were used to establish a TNBC chicken egg model. Fertilized eggs were incubated for 9 days and, at this time, the chicken embryo is surrounded by the CAM which provides nutrients for its development. At day 13 of development, the tumor mass could be visualized and the resulting tumors were treated with 2xlC50 EBR85-functionalized nanoparticles (corresponding to DOX concentration). The same concentration of DOX was used for the group treated with DOX alone. Also, a control group treated with DMEM medium was used to evaluate tumorgrowth. […] As observed in Figure 16, a significant reduction on tumor size could be appreciated for the EBR85-treated group, comparing to the control and DOX-treated groups.

The test system of data set [5] is chick embryo. Nature of the data set: Toxicity to the embryo in the in ovo model. Type of data set: in vivo, chicken. Particulars: 2xIC50 (DOX concentration), throughout the experiment. The protocol: as §1

A word on the pIC50: it is the negative decadic logarithm of the IC50, by convention in mol/L. Take `COc1cccc2c1C(=O)c1c(O)c3c(c(O)c1C2=O)C[C@@](O)(C(=O)CO)C[C@@H]3O[C@H]1C[C@H](N)[C@H](O)[C@H](C)O1` [DOX, Doxorubicin]: the negative logarithm of the IC50 (pIC50) in data set [1] (72h, without magnetic hyperthermia) was 5.80; in data set [1] (Figure 4C experiment, EBR85 with 1h magnetic hyperthermia then 72 h, free DOX as reference), 5.82. In data set [2], the polyspheroid growth result is “continued to grow during the first week of treatment; also recorded: slowing down its growth”. The cell migration capability entry in data set [3] is recorded as “very low migration capability”. In addition, the “regression in the tumors' area” value in data set [4] is reported as 11%. In data set [5], the “toxicity to the chick embryo” value is on record as “no toxicity”.
